Measured values taken from patent publication US9340507B2, “Substituted 4-pyridones and their use as inhibitors of neutrophil elastase activity” (Boehringer Ingelheim International GmbH, priority 2012, dated 2016).

Biological target: Human neutrophil elastase (Homo sapiens (Human), UniProt P08246)
Assay: Human Neutrophil Elastase Assay
Type: biochemical
Settings: substrate MeOSuc-Ala-Ala-Pro-Val-AMC 250 μM, pH 7.5, fluorescence

Human neutrophil elastase, sequence (P08246 30-267): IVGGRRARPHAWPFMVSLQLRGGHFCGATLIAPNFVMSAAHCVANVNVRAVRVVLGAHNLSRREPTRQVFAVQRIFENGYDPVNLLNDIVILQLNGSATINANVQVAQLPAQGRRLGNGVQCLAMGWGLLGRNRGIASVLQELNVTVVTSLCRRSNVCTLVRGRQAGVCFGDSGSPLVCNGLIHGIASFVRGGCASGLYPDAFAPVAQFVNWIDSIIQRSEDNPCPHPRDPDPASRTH

Compound | IC50
Cc1c(-c2cccc(C(F)(F)F)c2)c(=O)c(C(=O)NCc2ccc([S+](C)[O-])cc2)cn1C(C)C (single isomer, unassigned) [Example 27.1A] | 0.0054 µM
CC[C@@H](C)n1cc(C(=O)NCc2ccc(S(C)(=O)=O)cc2)c(=O)c(-c2cccc(C(F)F)c2)c1C [Example 11.1, (R)-1-sec-Butyl-5-(3-difluoromethyl-phenyl)-6-methyl-4-oxo-1,4-dihydro-pyridine-3-carboxylic acid 4-methanesulfonyl-benzylamide] | 0.008 µM
CCC(CC)n1cc(C(=O)NCc2ccc(S(C)(=O)=O)cn2)c(=O)c(-c2ccnc(C(F)(F)F)c2)c1C [Example 23.3, 1-(1-Ethyl-propyl)-2-methyl-4-oxo-2′-trifluoromethyl-1,4-dihydro-[3,4]bipyridinyl-5-carboxylic acid (5-methanesulfonyl-pyridin-2-ylmethyl)-amide] | 0.046 µM
CCn1cc(C(=O)NCc2ccc(S(C)(=O)=O)cn2)c(=O)c(-c2cccc(C(F)(F)F)c2)c1C [Example 2.1] | 0.057 µM
Cc1cc(S(C)(=O)=O)ccc1CNC(=O)c1cn(C(C)C)c(C)c(-c2cccc(C(F)(F)F)c2)c1=O [Example 36, 1-Isopropyl-6-methyl-4-oxo-5-(3-trifluoromethyl-phenyl)-1,4-dihydro-pyridine-3-carboxylic acid 4-methanesulfonyl-2-methyl-benzylamide] | 0.019 µM
CC[C@@H](C)n1cc(C(=O)NCc2ccc(S(C)(=O)=O)cn2)c(=O)c(-c2ccnc(C(F)(F)F)c2)c1C [Example 19.3, (R)-1-sec-Butyl-2-methyl-4-oxo-2′-trifluoromethyl-1,4-dihydro-[3,4′]bipyridinyl-5-carboxylic acid (5-methanesulfonyl-pyridin-2-ylmethyl)-amide] | 0.04 µM
Cc1c(-c2cccc(C(F)(F)F)c2)c(=O)c(C(=O)NCc2ccc([S+](C)[O-])cc2)cn1C(C)C (single isomer, unassigned) [Example 27.1B] | 0.03 µM
CCCn1cc(C(=O)NCc2ccc(S(C)(=O)=O)cc2)c(=O)c(-c2cccc(C(F)(F)F)c2)c1C [Example 1.3] | 0.028 µM
CCCn1cc(C(=O)NCc2ccc(S(C)(=O)=O)cn2)c(=O)c(-c2cccc(C(F)(F)F)c2)c1C [Example 2.2] | 0.02 µM
CC[C@H](C)n1cc(C(=O)NCc2nnc(C)o2)c(=O)c(-c2cccc(C(F)F)c2)c1C [Example 26, (S)-1-sec-Butyl-5-(3-difluoromethyl-phenyl)-6-methyl-4-oxo-1,4-dihydro-pyridine-3-carboxylic acid (5-methyl-[1,3,4]oxadiazol-2-ylmethyl)-amide] | 0.022 µM
CCc1c(-c2cccc(C(F)(F)F)c2)c(=O)c(C(=O)NCc2ccc(S(=O)(=O)CC)cc2)cn1C(C)C [Example 30.2, 6-Ethyl-1-isopropyl-4-oxo-5-(3-trifluoromethyl-phenyl)-1,4-dihydro-pyridine-3-carboxylic acid 4-ethanesulfonyl-benzylamide] | 0.011 µM
Cc1c(-c2ccc(F)c(C(F)F)c2)c(=O)c(C(=O)NCc2ccc(S(C)(=O)=O)cc2)cn1C(C)C [Example 5.4] | 0.061 µM

More lines, in order of falling IC50, values ahead:

IC50 | Compound
0.091 µM | Cc1c(-c2cncc(C(F)(F)F)c2)c(=O)c(C(=O)NCc2ccc(S(C)(=O)=O)cc2)cn1C(C)C [Example 5.5]
0.09 µM | Cc1c(-c2cccc(C(F)(F)F)c2)c(=O)c(C(=O)NCc2cccnn2)cn1C(C)C [Example 3.3]
0.072 µM | Cc1c(-c2cccc(C(F)F)c2)c(=O)c(C(=O)NCc2cccc(=O)[nH]2)cn1C(C)C [Example 4.4]
0.06 µM | Cc1c(-c2cccc(C(F)F)c2)c(=O)c(C(=O)NCc2cnn(C)c2)cn1C(C)C [Example 4.2]
0.048 µM | Cc1c(-c2cc(Cl)cc(C(F)(F)F)c2)c(=O)c(C(=O)NCc2ccc(S(C)(=O)=O)cc2)cn1C(C)C [Example 5.3]
0.027 µM | Cc1nnc(CNC(=O)c2cn(C(C)C)c(C)c(-c3cccc(C(F)F)c3)c2=O)o1 [Example 4.3]
0.02 µM | Cc1c(-c2cccc(C(F)(F)F)c2)c(=O)c(C(=O)NCc2ccc(CN3CCCC3=O)cc2)cn1C(C)C [Example 3.9]
0.011 µM | Cc1c(-c2cccc(C(F)F)c2)c(=O)c(C(=O)NCc2ccc(S(C)(=O)=O)cc2)cn1C(C)C [Example 4.14]
0.006 µM | Cc1cc(CNC(=O)c2cn(C(C)C)c(C)c(-c3cccc(C(F)F)c3)c2=O)ccc1S(C)(=O)=O [Example 28.2, 5-(3-Difluoromethyl-phenyl)-1-isopropyl-6-methyl-4-oxo-1,4-dihydro-pyridine-3-carboxylic acid 4-methanesulfonyl-3-methyl-benzylamide]

Tested on: not listed separately
Assay: Determination of aqueous solubility from DMSO stock solutions (kinetic solubility method)
Type: physicochemical
Settings: McIlvaine buffer pH 6.8, 24 h shaking, 2.5% DMSO, range 0.001 to 0.125 mg/ml
Description: Determination of Aqueous Solubility from DMSO Stock Solutions (“Kinetic Solubility Method”)
The aqueous solubility of examples of this invention is determined by comparing the amount dissolved in buffer to the amount dissolved in an acetonitrile/water (1/1) solution. Starting from a 10 mM DMSO stock solution, aliquots are diluted with acetonitrile/water (1/1) and McIlvaine buffer pH 6.8, respectively. After 24 h of shaking, the liquid phase is filtered and analyzed by LC-UV. The amount dissolved in buffer is compared to the amount dissolved in the acetonitrile/water (1/1) solution. Solubility is measured from 0.001 to 0.125 mg/ml at a DMSO concentration of 2.5%.

Compound | aqueous solubility at pH 6.8
Cc1c(-c2cccc(C(F)(F)F)c2)c(=O)c(C(=O)NCc2ccc([S+](C)[O-])cc2)cn1C(C)C (single isomer, unassigned) [Example 27.1A] | 0.081 mg/mL
Cc1c(-c2cccc(C(F)F)c2)c(=O)c(C(=O)NCc2ccc(S(C)(=O)=O)cc2)cn1C(C)C [Example 4.14] | 0.076 mg/mL
